Test results taken from patent publication US20250353873A1, “COMPOUNDS AND METHODS FOR MODULATING APOE EXPRESSION” (Ionis Pharmaceuticals, Inc., priority 2024, published 2025).
Strand notation (5' to 3'): a small letter for the sugar, then the base; units joined by * are phosphorothioate-linked, units joined directly phosphodiester-linked; [ ] holds rarer units or linkages, { } end groups; capitals alone tell only the bases. [ms] = mesyl phosphoramidate linkage; e = 2'-O-(2-methoxyethyl) (MOE); k = constrained ethyl (cEt); [5mC] = 5-methylcytosine; d = 2'-deoxy (DNA)

Key:
human APOE RNA [1] = assay: Activity in APOE C57BL/6NTac-Apoeem7250 knock-in mice, single ICV bolus, 16 weeks (Example 12); format: in vivo; settings: single ICV bolus 300 μg, 16 weeks post treatment, normalized to mouse Ppia
Outline: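 A single 300 μg intracerebroventricular dose was given, with PBS-treated mice as reference; cortical and spinal cord tissue was taken 16 weeks later. RT-qPCR quantified human APOE RNA, Ppia-normalized, expressed relative to PBS animals (% control).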

human APOE RNA [2] = assay: Activity in APOE C57BL/6NTac-Apoeem7250 knock-in mice, single ICV bolus, 8 weeks (Example 11); format: in vivo; settings: single ICV bolus 300 μg, 8 weeks post treatment, normalized to mouse Ppia
Outline: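 Cortical and spinal cord human APOE RNA quantified by RT-qPCR 8 weeks after a single 300 μg ICV dose in knock-in mice, Ppia-normalized. Values are percent of levels in PBS-treated animals.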

human APOE RNA [3] = assay: Activity in APOE C57BL/6NTac-Apoeem7250 knock-in mice, single ICV bolus, 4 weeks (Example 10); format: in vivo; settings: single ICV bolus 300 μg, 4 weeks post treatment, normalized to mouse Ppia
Procedure: Modified oligonucleotides described above were tested in the APOE C57BL/6NTac-Apoeem7250 knock-in mouse model described above.
APOE C57BL/6NTac-Apoeem7250 knock-in mice were divided into groups of 2-4 mice each. Each mouse received a single ICV bolus of 300 μg of modified oligonucleotide. A group of 3-4 mice received a single ICV bolus with PBS as a negative control.
Four weeks post treatment, mice were sacrificed and RNA was extracted from cortical brain tissue and spinal cord for quantitative real-time RT-PCR analysis of RNA expression of APOE using human primer probe set RTS3073 (described herein above). APOE RNA levels were normalized to mouse Ppia. Mouse Ppia was amplified using primer probe set m_cyclo24 (described herein above). Results are presented as percent human APOE RNA relative to the amount of human APOE RNA in PBS treated animals, (% control). Each experiment is identified in separate tables below.

human APOE RNA [4] = assay: Dose-dependent inhibition of human APOE RNA in HepG2 cells, electroporation, 50,000 cells per well, RT-PCR normalized to GAPDH (Example 4, Tables 8-10); format: cell-based; settings: HepG2, electroporation, 24-hour treatment
Procedure: Modified oligonucleotides selected from the examples above were tested at various doses in HepG2 cells. The modified oligonucleotides were tested in a series of experiments that had the same culture conditions. Each experiment is identified in separate tables below.
HepG2 cells plated at a density of 50,000 cells per well were treated by electroporation with various concentrations of modified oligonucleotide as specified in the tables below. […] APOE RNA levels were measured using the human primer probe set RTS3073 (forward sequence […], designated herein as SEQ ID NO: 7; reverse sequence CCATCAGCGCCCTCAGTT, designated herein as SEQ ID NO: 8; probe sequence […], designated herein as SEQ ID NO:9). APOE RNA levels were normalized to human GAPDH. […] Results are presented as percent APOE RNA, relative to the amount of APOE RNA in untreated control cells (UTC).

| Substance | APOE RNA (% control) Cortex (human APOE RNA [1]) [% control] | APOE RNA (% control) Spinal Cord (human APOE RNA [1]) [% control] | APOE RNA (% control) Cortex (human APOE RNA [2]) [% control] | APOE RNA (% control) Spinal Cord (human APOE RNA [2]) [% control] | APOE RNA (% control) Cortex (human APOE RNA [3]) [% control] | APOE RNA (% control) Spinal Cord (human APOE RNA [3]) [% control] | APOE RNA (% UTC) (human APOE RNA [4]; 5 nM) | APOE RNA (% UTC) (human APOE RNA [4]; 13 nM) | APOE RNA (% UTC) (human APOE RNA [4]; 33 nM) | APOE RNA (% UTC) (human APOE RNA [4]; 82 nM) | APOE RNA (% UTC) (human APOE RNA [4]; 205 nM) | APOE RNA (% UTC) (human APOE RNA [4]; 512 nM) | APOE RNA (% UTC) (human APOE RNA [4]; 1,280 nM) | APOE RNA (% UTC) (human APOE RNA [4]; 3,200 nM) | APOE RNA (% UTC) (human APOE RNA [4]; 8,000 nM) | APOE RNA (% UTC) (human APOE RNA [4]; 20,000 nM) | IC50 (human APOE RNA [4]) [nM] |
| --- | --- | --- | --- | --- | --- | --- | --- | --- | --- | --- | --- | --- | --- | --- | --- | --- | --- |
| 1693049: 5-10-5 MOE gapmer CTTGGTGAATCTTTATTAAA, linkages ssssszzzzssssszssss (antisense e[5mC]*eT*eT*eG*eG*dT[ms]dG[ms]dA[ms]dA[ms]dT*d[5mC]*dT*dT*dT*dA[ms]eT*eT*eA*eA*eA) [compound 1693049] | 93 | 81 | 101 | 96 |  |  |  |  |  |  |  |  |  |  |  |  |  |
| 1693050: 5-10-5 MOE gapmer TTGGTGAATCTTTATTAAAC, linkages soosszzzsssssssosss (antisense eT*eTeGeG*eT*dG[ms]dA[ms]dA[ms]dT*d[5mC]*dT*dT*dT*dA*dT*eTeA*eA*eA*e[5mC]) [compound 1693050] | 100 | 63 | 77 | 63 |  |  |  |  |  |  |  |  |  |  |  |  |  |
| 1693051: 5-10-5 MOE gapmer TTGGTGAATCTTTATTAAAC, linkages ssosszzzsssssssosss (antisense eT*eT*eGeG*eT*dG[ms]dA[ms]dA[ms]dT*d[5mC]*dT*dT*dT*dA*dT*eTeA*eA*eA*e[5mC]) [compound 1693051] | 97 | 79 | 114 | 76 |  |  |  |  |  |  |  |  |  |  |  |  |  |
| 1693052: 5-10-5 MOE gapmer TTGGTGAATCTTTATTAAAC, linkages sossszzzsssssssosss (antisense eT*eTeG*eG*eT*dG[ms]dA[ms]dA[ms]dT*d[5mC]*dT*dT*dT*dA*dT*eTeA*eA*eA*e[5mC]) [compound 1693052] | 91 | 85 | 65 | 79 |  |  |  |  |  |  |  |  |  |  |  |  |  |
| 1693082: 6-10-4 MOE gapmer TTGGTGAATCTTTATTAAAC, linkages ssssoozzszssszsssss (eT*eT*eG*eG*eTeGdA[ms]dA[ms]dT*d[5mC][ms]dT*dT*dT*dA[ms]dT*dT*eA*eA*eA*e[5mC]) [compound 1693082] | 81 | 72 | 113 | 54 |  |  |  |  |  |  |  |  |  |  |  |  |  |
| 1693084: 6-10-4 MOE gapmer TTGGTGAATCTTTATTAAAC, linkages ssssszzzszsszzsssss (eT*eT*eG*eG*eT*eG[ms]dA[ms]dA[ms]dT*d[5mC][ms]dT*dT*dT[ms]dA[ms]dT*dT*eA*eA*eA*e[5mC]) [compound 1693084] | 89 | 86 | 72 | 115 |  |  |  |  |  |  |  |  |  |  |  |  |  |
| 1693085: 6-10-4 MOE gapmer TTGGTGAATCTTTATTAAAC, linkages ssssszzzsssszzsssss (eT*eT*eG*eG*eT*eG[ms]dA[ms]dA[ms]dT*d[5mC]*dT*dT*dT[ms]dA[ms]dT*dT*eA*eA*eA*e[5mC]) [compound 1693085] | 93 | 71 | 86 | 79 |  |  |  |  |  |  |  |  |  |  |  |  |  |
| 1746786 (k[5mC]*kT*dT[ms]dG[ms]kG*dT[ms]dG[ms]dA[ms]dA[ms]dT*d[5mC]*dT*dT*dT*dA[ms]dT*kT*kA*dA[ms]kA; antisense) [Compound 1746786] |  |  |  |  | 79 | 52 | 85 | 93 | 90 | 75 | 87 | 63 | 39 | 34 | 18 | 14 | 1010 |
| 1746787 (k[5mC]*kT*dT[ms]dG[ms]dG[ms]kT*dG[ms]dA[ms]dA[ms]dT*d[5mC]*dT*dT*dT*dA[ms]dT*kT*kA*dA[ms]kA; antisense) [Compound 1746787] |  |  |  |  | 76 | 71 | 148 | 108 | 92 | 97 | 87 | 68 | 56 | 37 | 11 | 14 | 1520 |
| 1746792 (k[5mC]*dT[ms]dT[ms]kG*dG[ms]kT*dG[ms]dA[ms]dA[ms]dT*d[5mC]*dT*dT*dT*dA[ms]dT*kT*kA*dA[ms]kA; antisense) [Compound 1746792] |  |  |  |  | 71 | 49 | 80 | 102 | 90 | 87 | 68 | 44 | 17 | 12 | 8 | 6 | 400 |
| 1746793 (k[5mC]*dT[ms]dT[ms]dG[ms]kG*kT*dG[ms]dA[ms]dA[ms]dT*d[5mC]*dT*dT*dT*dA[ms]dT*kT*kA*dA[ms]kA; antisense) [Compound 1746793] |  |  |  |  | 86 | 47 | 102 |  | 96 | 96 | 53 | 54 | 34 | 31 | 1 | 2 | 560 |
| 1746794 (k[5mC]*kT*kT*dG[ms]dG[ms]dT[ms]dG[ms]dA[ms]dA[ms]dT*d[5mC]*dT*dT*dT*dA[ms]dT*kT*dA[ms]kA*kA; antisense) [Compound 1746794] |  |  |  |  | 76 | 41 | 119 | 107 | 94 | 91 | 67 | 72 | 37 | 16 | 9 | 3 | 800 |
| 1746795 (k[5mC]*kT*dT[ms]kG*dG[ms]dT[ms]dG[ms]dA[ms]dA[ms]dT*d[5mC]*dT*dT*dT*dA[ms]dT*kT*dA[ms]kA*kA; antisense) [Compound 1746795] |  |  |  |  | 75 | 75 | 119 | 115 | 110 | 108 | 99 | 53 | 57 | 28 | 12 | 6 | 1290 |
